In patent US20070104785A1, “TABLETS OF LINEZOLID FORM III AND PROCESSES FOR THEIR PREPARATION” (priority 2005, published 2007):

Test: Gelling tendency when the solid dosage form contacts water
Assay type: physicochemical
Conditions: in words
From the text: Linezolid Form I is known from the publication, Brickner S J et al. (J. Med. Chem. 39 (3), 673-679, 1996). U.S. Pat. No. 6,559,305 discloses linezolid Form II. Tablets containing linezolid Form II are known from U.S. Pat. No. 6,514,529. The PCT application WO 05035530 discloses crystalline Form III of linezolid. […]. The gel formation leads to an erratic dissolution of the linezolid from the dosage form. A dosage form should deliver a drug in a reproducible way so that a maximum therapeutic effect can be achieved. An unpredictable release from the dosage form can compromise efficacy. The gelling tendency of linezolid Form III would discourage its formulation into solid dosage forms.
Without wishing to be bound by any theory, the following explanation is given for mechanisms involved with the solid dosage form of the present invention that provide a reproducible dissolution profile. […]. When linezolid Form III crystal comes in contact with water, the surface of the crystal dissolves and the dissolved linezolid Form III instead of spreading in water tends to stick to the crystal surface to form a gel layer around the crystal. The gel formation around the crystal acts as a barrier impeding further contact with water, which in turn retards the solubilization of linezolid Form III. […]

gelling tendency in contact with water: exhibits a gelling tendency
SMILES: CC(=O)NC[C@H]1CN(c2ccc(N3CCOCC3)c(F)c2)C(=O)O1 [Linezolid Form III, (S)—N—[[3-[3-Fluoro-4-(4-morpholinyl)phenyl]-2-oxo-5-oxazolidinyl]methyl]-acetamide]
